Key:
Experiment in all cases: Z'-LYTE kinase panel
Format in all cases: biochemical
CLK3 = target: T1, CLK3 (Homo sapiens, UniProt P49761)
T1 construct: purchased ThermoFisher (SelectScreen, Z'-LYTE)
Outline: (§1)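 Readout is percentage inhibition, obtained from the standard Z′-LYTE protocol with test compound present at 10 µM; screened within a panel of 225 kinases.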

FLT3 = target: T2, FLT3 (Homo sapiens, UniProt P36888)
T2 construct: purchased ThermoFisher (SelectScreen, Z'-LYTE)
T2 sequence (P36888 27-993): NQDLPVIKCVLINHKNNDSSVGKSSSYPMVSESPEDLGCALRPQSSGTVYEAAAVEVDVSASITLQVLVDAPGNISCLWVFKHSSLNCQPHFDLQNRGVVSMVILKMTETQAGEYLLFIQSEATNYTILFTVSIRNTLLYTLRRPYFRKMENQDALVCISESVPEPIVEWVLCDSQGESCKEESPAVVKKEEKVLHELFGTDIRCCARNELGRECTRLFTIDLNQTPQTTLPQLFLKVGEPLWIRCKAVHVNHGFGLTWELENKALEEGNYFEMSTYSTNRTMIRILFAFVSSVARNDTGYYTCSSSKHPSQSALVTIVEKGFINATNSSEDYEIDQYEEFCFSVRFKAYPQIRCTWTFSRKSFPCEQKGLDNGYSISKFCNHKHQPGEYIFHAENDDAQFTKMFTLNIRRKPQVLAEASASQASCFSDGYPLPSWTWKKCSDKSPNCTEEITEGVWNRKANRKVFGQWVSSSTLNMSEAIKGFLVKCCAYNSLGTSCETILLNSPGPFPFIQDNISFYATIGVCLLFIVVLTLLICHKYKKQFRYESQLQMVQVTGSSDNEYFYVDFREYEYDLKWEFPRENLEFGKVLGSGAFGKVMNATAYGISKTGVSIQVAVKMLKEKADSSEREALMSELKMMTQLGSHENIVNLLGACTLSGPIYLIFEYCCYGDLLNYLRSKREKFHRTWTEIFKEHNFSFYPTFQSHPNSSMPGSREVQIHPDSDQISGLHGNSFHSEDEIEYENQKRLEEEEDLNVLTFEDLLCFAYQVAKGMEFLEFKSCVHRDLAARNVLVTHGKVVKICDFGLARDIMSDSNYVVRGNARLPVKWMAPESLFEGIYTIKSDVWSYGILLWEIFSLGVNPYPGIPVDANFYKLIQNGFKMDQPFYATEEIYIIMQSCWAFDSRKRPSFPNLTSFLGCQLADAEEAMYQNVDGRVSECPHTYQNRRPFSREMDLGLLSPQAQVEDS
Outline: as §1

MAPK12 (p38 gamma) = target: T3, MAPK12 (p38 gamma) (Homo sapiens, UniProt P53778)
T3 construct: purchased ThermoFisher (SelectScreen, Z'-LYTE)
T3 sequence (P53778 1-367): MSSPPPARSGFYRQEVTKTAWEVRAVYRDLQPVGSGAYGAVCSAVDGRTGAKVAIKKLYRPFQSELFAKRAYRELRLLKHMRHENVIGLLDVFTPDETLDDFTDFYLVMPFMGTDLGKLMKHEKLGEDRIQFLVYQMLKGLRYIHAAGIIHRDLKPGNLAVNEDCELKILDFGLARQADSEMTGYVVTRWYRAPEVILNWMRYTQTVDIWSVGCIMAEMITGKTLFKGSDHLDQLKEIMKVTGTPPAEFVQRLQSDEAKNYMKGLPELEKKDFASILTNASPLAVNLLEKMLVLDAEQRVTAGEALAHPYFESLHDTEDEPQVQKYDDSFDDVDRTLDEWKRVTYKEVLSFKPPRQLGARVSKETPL
Outline: as §1

TYK2 = target: T4, TYK2 (Homo sapiens, UniProt P29597); conditions: 10 µM compound, ATP Km app
T4 construct: purchased ThermoFisher (SelectScreen, Z'-LYTE)
T4 sequence (P29597 whole entry): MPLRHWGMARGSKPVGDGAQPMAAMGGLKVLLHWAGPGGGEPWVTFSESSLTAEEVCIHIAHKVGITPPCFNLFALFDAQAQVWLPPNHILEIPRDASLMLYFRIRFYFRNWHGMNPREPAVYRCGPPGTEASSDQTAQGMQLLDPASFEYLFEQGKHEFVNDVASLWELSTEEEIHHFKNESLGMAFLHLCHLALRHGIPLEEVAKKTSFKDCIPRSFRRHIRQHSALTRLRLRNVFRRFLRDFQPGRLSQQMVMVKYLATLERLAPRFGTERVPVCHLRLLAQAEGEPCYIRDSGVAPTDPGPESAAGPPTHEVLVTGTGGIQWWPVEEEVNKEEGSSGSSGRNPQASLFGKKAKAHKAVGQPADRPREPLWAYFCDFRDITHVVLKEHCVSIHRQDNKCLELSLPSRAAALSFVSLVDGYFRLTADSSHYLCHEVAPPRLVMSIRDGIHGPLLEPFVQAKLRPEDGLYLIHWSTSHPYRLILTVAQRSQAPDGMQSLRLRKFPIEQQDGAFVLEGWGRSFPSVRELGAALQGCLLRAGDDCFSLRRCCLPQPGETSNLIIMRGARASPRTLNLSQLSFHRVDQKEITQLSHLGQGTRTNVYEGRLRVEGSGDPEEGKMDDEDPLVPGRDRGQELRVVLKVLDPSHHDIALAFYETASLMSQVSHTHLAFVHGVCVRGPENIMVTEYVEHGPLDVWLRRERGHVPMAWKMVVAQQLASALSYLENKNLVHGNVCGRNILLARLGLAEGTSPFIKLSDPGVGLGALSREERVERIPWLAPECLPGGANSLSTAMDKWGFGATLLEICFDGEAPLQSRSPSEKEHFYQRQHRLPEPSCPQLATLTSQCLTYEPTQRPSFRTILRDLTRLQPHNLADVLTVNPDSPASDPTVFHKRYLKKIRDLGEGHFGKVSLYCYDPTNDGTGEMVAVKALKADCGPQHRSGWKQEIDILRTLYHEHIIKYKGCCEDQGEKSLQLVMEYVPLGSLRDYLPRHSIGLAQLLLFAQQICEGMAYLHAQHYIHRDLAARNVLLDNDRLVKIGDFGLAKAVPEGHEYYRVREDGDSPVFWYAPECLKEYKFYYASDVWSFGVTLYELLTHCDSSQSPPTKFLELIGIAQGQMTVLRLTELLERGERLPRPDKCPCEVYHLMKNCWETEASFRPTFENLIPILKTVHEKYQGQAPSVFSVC
Outline: as §1

MAP3K8 (COT) = target: T5, MAP3K8 (COT) (Homo sapiens, UniProt P41279); conditions: 10 µM compound; ATP 100
T5 construct: purchased ThermoFisher (SelectScreen, Z'-LYTE)
Outline: as §1

NTRK3 (TRKC) = target: T6, NTRK3 (TRKC) (Homo sapiens, UniProt Q16288)
T6 construct: purchased ThermoFisher (SelectScreen, Z'-LYTE)
T6 sequence (Q16288 32-839): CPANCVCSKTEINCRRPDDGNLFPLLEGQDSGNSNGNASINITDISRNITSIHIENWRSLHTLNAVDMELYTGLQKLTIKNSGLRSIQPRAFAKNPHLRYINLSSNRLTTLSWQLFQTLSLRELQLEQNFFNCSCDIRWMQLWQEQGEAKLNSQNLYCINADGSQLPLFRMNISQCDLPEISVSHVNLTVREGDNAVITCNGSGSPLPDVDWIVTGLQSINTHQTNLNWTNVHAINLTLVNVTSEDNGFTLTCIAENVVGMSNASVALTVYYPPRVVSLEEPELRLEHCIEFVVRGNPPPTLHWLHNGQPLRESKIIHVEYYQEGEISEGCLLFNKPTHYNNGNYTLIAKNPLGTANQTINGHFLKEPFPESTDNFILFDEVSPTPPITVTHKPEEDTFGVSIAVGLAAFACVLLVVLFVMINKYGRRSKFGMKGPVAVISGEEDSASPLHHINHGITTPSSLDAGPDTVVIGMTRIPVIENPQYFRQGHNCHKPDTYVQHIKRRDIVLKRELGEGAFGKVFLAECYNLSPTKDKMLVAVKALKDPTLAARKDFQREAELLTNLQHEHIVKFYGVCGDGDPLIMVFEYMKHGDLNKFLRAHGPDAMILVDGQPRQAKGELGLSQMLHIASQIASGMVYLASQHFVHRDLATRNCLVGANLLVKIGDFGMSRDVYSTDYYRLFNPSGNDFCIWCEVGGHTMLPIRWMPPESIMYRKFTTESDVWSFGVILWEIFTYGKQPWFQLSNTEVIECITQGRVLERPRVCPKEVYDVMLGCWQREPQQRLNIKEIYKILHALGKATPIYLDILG
Outline: as §1

ROCK2 = target: T7, ROCK2 (Homo sapiens, UniProt O75116)
T7 construct: purchased ThermoFisher (SelectScreen, Z'-LYTE)
Outline: as §1

EGFR (ErbB1) = target: T8, EGFR (ErbB1) (Homo sapiens, UniProt P00533)
T8 construct: purchased ThermoFisher (SelectScreen, Z'-LYTE)
Outline: as §1

MAP3K9 (MLK1) = target: T9, MAP3K9 (MLK1) (Homo sapiens, UniProt P80192)
T9 construct: purchased ThermoFisher (SelectScreen, Z'-LYTE)
T9 sequence (P80192 whole entry): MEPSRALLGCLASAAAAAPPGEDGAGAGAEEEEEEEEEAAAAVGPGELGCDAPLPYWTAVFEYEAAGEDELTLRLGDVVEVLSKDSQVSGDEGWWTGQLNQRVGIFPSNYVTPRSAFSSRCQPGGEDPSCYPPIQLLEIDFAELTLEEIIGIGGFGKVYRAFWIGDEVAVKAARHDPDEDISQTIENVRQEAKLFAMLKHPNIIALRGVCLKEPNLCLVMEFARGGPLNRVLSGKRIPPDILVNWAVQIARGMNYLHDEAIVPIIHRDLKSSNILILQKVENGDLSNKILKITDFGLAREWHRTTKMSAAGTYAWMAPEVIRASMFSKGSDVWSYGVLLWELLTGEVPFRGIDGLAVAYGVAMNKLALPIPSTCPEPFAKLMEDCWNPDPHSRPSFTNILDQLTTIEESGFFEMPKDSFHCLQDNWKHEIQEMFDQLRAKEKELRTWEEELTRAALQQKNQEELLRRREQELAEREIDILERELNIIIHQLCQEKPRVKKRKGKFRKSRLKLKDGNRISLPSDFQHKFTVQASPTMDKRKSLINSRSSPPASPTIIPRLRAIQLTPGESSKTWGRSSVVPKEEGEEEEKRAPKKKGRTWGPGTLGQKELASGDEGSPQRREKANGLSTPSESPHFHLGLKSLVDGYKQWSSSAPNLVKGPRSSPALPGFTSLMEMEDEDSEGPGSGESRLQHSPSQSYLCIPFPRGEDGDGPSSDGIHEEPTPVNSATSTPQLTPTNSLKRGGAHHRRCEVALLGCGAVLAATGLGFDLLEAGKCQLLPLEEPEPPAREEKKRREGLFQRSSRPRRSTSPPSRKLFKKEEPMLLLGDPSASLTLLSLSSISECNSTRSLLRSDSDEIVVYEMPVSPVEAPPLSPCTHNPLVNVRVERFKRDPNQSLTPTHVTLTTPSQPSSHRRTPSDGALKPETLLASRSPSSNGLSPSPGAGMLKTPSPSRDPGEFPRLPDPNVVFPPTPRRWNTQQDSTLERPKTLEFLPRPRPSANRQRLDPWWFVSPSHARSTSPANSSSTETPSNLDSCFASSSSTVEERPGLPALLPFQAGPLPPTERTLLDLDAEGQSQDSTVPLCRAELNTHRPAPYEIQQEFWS
Outline: as §1

BRSK1 (SAD1) = target: T10, BRSK1 (SAD1) (Homo sapiens, UniProt Q8TDC3)
T10 construct: purchased ThermoFisher (SelectScreen, Z'-LYTE)
T10 sequence (Q8TDC3 1-778): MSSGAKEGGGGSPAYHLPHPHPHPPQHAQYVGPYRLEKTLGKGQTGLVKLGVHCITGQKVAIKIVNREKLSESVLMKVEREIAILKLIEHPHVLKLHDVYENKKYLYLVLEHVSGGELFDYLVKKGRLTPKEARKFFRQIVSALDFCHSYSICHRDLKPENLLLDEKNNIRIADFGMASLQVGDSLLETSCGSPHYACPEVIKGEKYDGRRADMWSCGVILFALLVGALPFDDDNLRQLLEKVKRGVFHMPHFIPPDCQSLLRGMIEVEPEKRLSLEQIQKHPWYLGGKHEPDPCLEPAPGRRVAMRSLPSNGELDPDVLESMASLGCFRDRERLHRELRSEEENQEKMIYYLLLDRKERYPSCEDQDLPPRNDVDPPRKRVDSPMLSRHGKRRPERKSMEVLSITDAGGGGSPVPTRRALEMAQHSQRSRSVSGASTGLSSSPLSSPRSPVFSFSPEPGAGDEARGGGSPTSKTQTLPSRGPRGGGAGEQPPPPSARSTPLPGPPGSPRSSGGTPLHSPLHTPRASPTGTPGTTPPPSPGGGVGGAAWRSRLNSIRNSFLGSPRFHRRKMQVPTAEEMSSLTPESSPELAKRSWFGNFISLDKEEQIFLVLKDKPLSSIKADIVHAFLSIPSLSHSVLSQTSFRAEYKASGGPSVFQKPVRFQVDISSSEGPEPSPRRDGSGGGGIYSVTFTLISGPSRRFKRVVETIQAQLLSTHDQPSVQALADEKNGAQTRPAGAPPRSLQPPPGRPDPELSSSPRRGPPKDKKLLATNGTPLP
Outline: as §1

AMPK A2/B1/G1 = target: T11, AMPK A2/B1/G1 (Homo sapiens, UniProt P54646)
T11 construct: purchased ThermoFisher (SelectScreen, Z'-LYTE)
T11 sequence (P54646 whole entry): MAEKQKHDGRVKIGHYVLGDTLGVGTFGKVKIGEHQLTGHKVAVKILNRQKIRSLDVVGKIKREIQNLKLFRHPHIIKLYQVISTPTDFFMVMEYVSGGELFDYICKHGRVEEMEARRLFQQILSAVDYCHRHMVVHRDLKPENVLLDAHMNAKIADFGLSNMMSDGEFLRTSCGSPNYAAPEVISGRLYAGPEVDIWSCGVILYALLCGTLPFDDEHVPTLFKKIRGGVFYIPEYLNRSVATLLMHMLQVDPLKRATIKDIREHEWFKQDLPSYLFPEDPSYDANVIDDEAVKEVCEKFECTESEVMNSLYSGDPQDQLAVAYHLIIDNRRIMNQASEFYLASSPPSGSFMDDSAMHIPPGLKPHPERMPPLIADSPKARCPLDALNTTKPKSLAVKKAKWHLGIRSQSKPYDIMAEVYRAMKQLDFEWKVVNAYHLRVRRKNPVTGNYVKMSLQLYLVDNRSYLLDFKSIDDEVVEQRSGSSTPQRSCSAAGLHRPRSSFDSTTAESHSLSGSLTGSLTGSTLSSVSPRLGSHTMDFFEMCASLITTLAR
T11 sequence (Q9Y478 whole entry partner): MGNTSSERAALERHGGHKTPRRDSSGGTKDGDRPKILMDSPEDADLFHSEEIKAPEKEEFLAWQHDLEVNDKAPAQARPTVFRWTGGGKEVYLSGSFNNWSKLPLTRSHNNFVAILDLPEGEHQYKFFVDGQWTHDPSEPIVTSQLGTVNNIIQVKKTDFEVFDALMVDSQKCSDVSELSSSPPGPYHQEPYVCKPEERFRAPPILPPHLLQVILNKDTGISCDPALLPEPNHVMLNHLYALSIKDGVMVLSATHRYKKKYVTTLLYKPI
T11 sequence (P54619 whole entry partner): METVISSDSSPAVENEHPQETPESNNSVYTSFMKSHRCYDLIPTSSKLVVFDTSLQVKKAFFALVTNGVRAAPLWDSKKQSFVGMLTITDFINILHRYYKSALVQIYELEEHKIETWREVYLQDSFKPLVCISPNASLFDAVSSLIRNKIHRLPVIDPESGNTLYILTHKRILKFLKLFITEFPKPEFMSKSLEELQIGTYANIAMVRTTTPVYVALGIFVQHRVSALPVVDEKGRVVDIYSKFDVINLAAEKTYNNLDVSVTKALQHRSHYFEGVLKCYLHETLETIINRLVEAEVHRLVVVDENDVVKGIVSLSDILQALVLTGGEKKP
Outline: as §1

CSNK1G3 (CK1 gamma 3) = target: T12, CSNK1G3 (CK1 gamma 3) (Homo sapiens, UniProt Q9Y6M4)
T12 construct: purchased ThermoFisher (SelectScreen, Z'-LYTE)
Outline: as §1

T1 sequence (P49761 whole entry): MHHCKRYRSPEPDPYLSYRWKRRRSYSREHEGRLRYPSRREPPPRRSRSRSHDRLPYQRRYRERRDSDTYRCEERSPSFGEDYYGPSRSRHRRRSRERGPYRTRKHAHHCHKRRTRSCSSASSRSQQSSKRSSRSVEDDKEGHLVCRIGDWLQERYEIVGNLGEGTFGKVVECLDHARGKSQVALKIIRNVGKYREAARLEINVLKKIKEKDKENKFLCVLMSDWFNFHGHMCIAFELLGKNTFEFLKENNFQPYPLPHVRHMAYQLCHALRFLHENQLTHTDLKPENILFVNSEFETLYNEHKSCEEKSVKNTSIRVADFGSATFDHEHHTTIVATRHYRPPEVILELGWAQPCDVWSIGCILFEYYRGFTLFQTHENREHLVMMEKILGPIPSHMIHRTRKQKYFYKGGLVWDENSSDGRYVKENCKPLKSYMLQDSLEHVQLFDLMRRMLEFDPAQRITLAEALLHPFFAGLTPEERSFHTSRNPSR

Row | Molecule | inhibition at 10 µM (CLK3) | inhibition at 10 µM (FLT3) | inhibition at 10 µM (MAPK12 (p38 gamma)) | inhibition at 10 µM (TYK2) | inhibition at 10 µM (MAP3K8 (COT)) | inhibition at 10 µM (NTRK3 (TRKC)) | inhibition at 10 µM (ROCK2) | inhibition at 10 µM (EGFR (ErbB1)) | inhibition at 10 µM (MAP3K9 (MLK1)) | inhibition at 10 µM (BRSK1 (SAD1)) | inhibition at 10 µM (AMPK A2/B1/G1) | inhibition at 10 µM (CSNK1G3 (CK1 gamma 3)) | also measured
1 | Cc1cc(Nc2nc(N)nn2C(=O)NC(C)C)ccc1Cl [Compound 5] | 12% | 55% | 1.08% | > 80% | -2.72% | 52% | 37% | 1% | 69% | 35% | 29% | 17% | TYK2 % Inhibition (TYK2; listed as SN1109056190, 10 µM): 94%
2 | Cc1ncc(-c2nc(Nc3ccc(C(=O)NCCN4CCCCC4)cc3)ncc2F)n1C(C)C [Compound 3] | 71% | 101% | 46% | 101% | 89% | 79% | 40% | 13% | 92% | 91% | 94% | 89% | 
3 | XMD8-92 [Compound 2, reference compound] |  |  |  |  |  |  |  |  |  |  |  |  | CLK3 % Inhibition (CLK3; 10 µM compound, ATP Km app): 5.55%; FLT3 % Inhibition (FLT3; 10 µM compound, ATP Km app): 90%; MAPK12 (p38 gamma) % Inhibition (MAPK12 (p38 gamma); 10 µM compound, ATP Km app): 3.54%; TYK2 % Inhibition (TYK2): 36%; MAP3K8 (COT) % Inhibition (MAP3K8 (COT)): 3.36%; NTRK3 (TRKC) % Inhibition (NTRK3 (TRKC); 10 µM compound, ATP Km app): 64%; ROCK2 % Inhibition (ROCK2; 10 µM compound, ATP Km app): 93%; EGFR (ErbB1) % Inhibition (EGFR (ErbB1); 10 µM compound, ATP Km app): -11%; MAP3K9 (MLK1) % Inhibition (MAP3K9 (MLK1); 10 µM compound, ATP Km app): 8.53%; BRSK1 (SAD1) % Inhibition (BRSK1 (SAD1); 10 µM compound, ATP Km app): 80%; AMPK A2/B1/G1 % Inhibition (AMPK A2/B1/G1; 10 µM compound, ATP Km app): 58%; CSNK1G3 (CK1 gamma 3) % Inhibition (CSNK1G3 (CK1 gamma 3); 10 µM compound, ATP Km app): 31%

Source: PMC4854315, “Discovery of a novel allosteric inhibitor-binding site in ERK5: comparison with the canonical kinase hinge ATP-binding site” (Acta Crystallographica. Section D, Structural Biology, 2016)
